The subject of data set [1] is MDCK-MDR1 cells (P-gp, MDR1). Kind of data set: MDR1-MDCK bidirectional permeability assay. The conditions noted are these: for PappAB: A to B.
Procedure: (§1) A bidirectional permeability assay using Madin Darby canine kidney cells expressing multi-drug resistance gene 1 (MDCK-MDR1) is routinely used to evaluate discovery compounds' BBB permeability and drug efflux toward the advancement of discovery compounds with brain penetration.
(§2) MDCK-MDR1 Cells (NIH cell line) were obtained from the National Institutes of Health. […] Cell culture medium was replaced every other day, beginning no later than 24 hours after the initial plating. […] The dosing solution concentration was 1 μM for the test article in the assay buffer. Cell monolayers were dosed on the apical side (A-to-B) or basolateral side (B-to-A) and incubated at 37° C. under an atmosphere of 5% CO2 in a humidified incubator. Samples were taken from the donor and receiver chambers at 120 minutes. Each determination was performed in duplicate. After the 120 min transport period, the flux of lucifer yellow was also measured for each monolayer to ensure no damage was inflicted to the cell monolayers during the transport period. All samples were assayed by LC-MS/MS (Waters XSelect HSS T3 C18, 2.5 m, 2.1×50 mm) using electrospray ionization with 0.1% formic acid in water (mobile phase A) and 0.1% formic acid in acetonitrile (mobile phase B) as mobile phases. The apparent permeability coefficient (Papp), in units of cm per second, was calculated for MDCK-MDR1 Cells (NIH cell line) drug transport assays using the following equation:
(§3) Where VA is the volume (in mL) in the acceptor well, Area is the surface area of the membrane (0.143 cm^2 for Transwell-96 Well Permeable Supports), and time is the total transport time in seconds.
(§4) The leakage of Lucifer Yellow (LY), in unit of percentage (%), can be calculated using the following equation:
(§5) LY leakage of <1% is acceptable to indicate the well-qualified MDCK-MDR1(NIH) monolayer.
Data set [2] relates to P-gp (MDR1). The data set can be described thus: MDR1-MDCK bidirectional permeability assay. Particulars: dog, MDCK-MDR1, pH 7.4, Efflux ratio.
Procedure: as §1, §2, §3, §4, §5
Data set [3] deals with human NAMPT (Homo sapiens (Human), UniProt P43490). Kind of data set: NMN fluorescence biochemical assay (human recombinant NAMPT enzyme assay). The essentials:
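NMN formed was detected by fluorescence (Ex/Em 355/460 nm) after acetophenone, KOH and formic acid derivatization. The cell-free reaction ran 60 min at ambient temperature with 6 nM human NAMPT, 150 μM nicotinamide, 20 μM PRPP, 2.5 mM ATP, pH 7.2 HEPES, and compound dose responses.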

Values joined by “and” are separate entries in the source; they are usually repeats but may differ in a detail not shown here. Equal values may be shown once.

human NAMPT, sequence (P43490 whole entry): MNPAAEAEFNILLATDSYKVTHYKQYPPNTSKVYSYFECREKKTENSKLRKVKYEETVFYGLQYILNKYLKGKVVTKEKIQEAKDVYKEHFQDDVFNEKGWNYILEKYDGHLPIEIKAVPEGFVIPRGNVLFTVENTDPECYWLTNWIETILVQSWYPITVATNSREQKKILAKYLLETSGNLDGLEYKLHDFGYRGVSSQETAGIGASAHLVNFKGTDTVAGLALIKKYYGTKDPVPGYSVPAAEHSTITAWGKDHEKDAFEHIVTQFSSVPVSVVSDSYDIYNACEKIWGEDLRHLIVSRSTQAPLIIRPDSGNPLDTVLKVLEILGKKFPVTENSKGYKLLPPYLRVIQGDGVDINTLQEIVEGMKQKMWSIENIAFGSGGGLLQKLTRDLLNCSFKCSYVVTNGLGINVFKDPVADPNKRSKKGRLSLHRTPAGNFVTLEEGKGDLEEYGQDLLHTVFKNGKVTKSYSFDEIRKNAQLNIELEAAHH

Take `O=C(NCc1ccc(Cl)cc1)Nc1ccc(CC2CCN(C3COC3)CC2)cc1` [Comparator 1, 1-(4-chlorobenzyl)-3-(4-((1-(oxetan-3-yl)piperidin-4-yl)methyl)phenyl)urea, reference compound]: the PappAB in data set [1] is given as 1.85. The efflux ratio at 120 min, 1 μM in data set [2] was 14.7.

Regarding `O=C(Nc1ccc(CN2CCC[C@@H]2c2cccnc2)cc1)OCc1ccc(CO)cc1` [Compound 5, [4-(hydroxymethyl)phenyl]methyl N-(4-{[(2R)-2-(pyridin-3-yl)pyrrolidin-1-yl]methyl}phenyl)carbamate], in data set [3], the “AC1.4 Human” value was found to be 0.07 µM and the EC50 amounted to 0.29 µM. The compound further registered a PappAB in data set [1] of 5.32. In data set [2], the efflux ratio at 120 min, 1 μM was 7.02.

`CC(=O)N1CCC(c2ccc(NC(=O)OCc3cnco3)cc2)CC1` [Compound 8, 1,3-oxazol-5-ylmethyl N-[4-(1-acetylpiperidin-4-yl)phenyl]carbamate]: in data set [3], the “AC1.4 Human” value worked out at 0.14 µM and the EC50 turned out to be 32.6 µM. The PappAB in data set [1] turned out to be 9.77. Besides, the efflux ratio at 120 min, 1 μM in data set [2] was 5.41.

For `Cc1ccc(C(=O)NCc2ccc(NC(=O)OCc3ccc(Cl)cc3)cc2)cn1` [Compound 21, (4-chlorophenyl)methyl N-(4-{[(6-methylpyridin-3-yl)formamido]methyl}phenyl)carbamate], in data set [3], the “AC1.4 Human” value was 0.30 µM and the EC50 stood at 2 µM. Moreover, in data set [1], the PappAB came to 2.79. In addition, the efflux ratio at 120 min, 1 μM in data set [2] came out at 3.74.

Consider `COC(=O)N1CCC(Cc2ccc(NC(=O)OCc3ccncc3)cc2)CC1` [Compound 23, methyl 4-(4-(((pyridin-4-ylmethoxy)carbonyl)amino)benzyl)piperidine-1-carboxylate], for which, in data set [3], the “AC1.4 Human” value was determined as 0.32 µM and the EC50 was 2.76 µM. Moreover, the PappAB in data set [1] is 6.30. The efflux ratio at 120 min, 1 μM in data set [2] was 2.

For `CN(C)C(=O)N1CCC(CCc2ccc(NC(=O)OCc3cnco3)cc2)CC1` [Compound 32, oxazol-5-ylmethyl (4-(2-(1-(dimethylcarbamoyl)piperidin-4-yl)ethyl)phenyl)carbamate], in data set [3], the “AC1.4 Human” value was 0.38 µM and the EC50 came out at 21 µM. Moreover, the PappAB in data set [1] stood at 5.57. For the same compound, in data set [2], the efflux ratio at 120 min, 1 μM worked out at 3.32.

On to `CC(=O)N1CCC(Cc2ccc(NC(=O)OCc3ccc(Cl)cc3)cc2)CC1` [Compound 40, 4-chlorobenzyl (4-((1-acetylpiperidin-4-yl)methyl)phenyl)carbamate], for which, in data set [3], the “AC1.4 Human” value was found to be 0.43 µM and the EC50 worked out at 2.4 µM. In data set [1], the Efflux ratio came to 1.9; the PappAB was 3.38 and 3.4. Moreover, in data set [2], the efflux ratio at 120 min, 1 μM came to 1.93.

Take `O=C(Nc1ccc(CC2CCN(C3COC3)CC2)cc1)OCc1ccc(Cl)cc1` [Compound 43, 4-chlorobenzyl (4-((1-(oxetan-3-yl)piperidin-4-yl)methyl)phenyl)carbamate]: in data set [3], the “AC1.4 Human” value is 0.45 µM and the EC50 came to 4.56 µM. Besides, the PappAB in data set [1] was 5.39 and 5.4. Besides, the efflux ratio at 120 min, 1 μM in data set [2] was 0.92.

Consider `O=C(Nc1ccc(CC2CCN(CC(F)F)CC2)cc1)OCc1cnco1` [Compound 59, oxazol-5-ylmethyl (4-((1-(2,2-difluoroethyl)piperidin-4-yl)methyl)phenyl)carbamate], for which, in data set [3], the “AC1.4 Human” value came out at 0.56 µM and the EC50 was found to be 48.9 µM. In data set [1], this compound gave a PappAB of 13.26. In data set [2], the efflux ratio at 120 min, 1 μM is 1.11.

Regarding `O=C(Nc1ccc(CC2CCN(CC(F)(F)F)CC2)cc1)OCc1cnco1` [Compound 70, oxazol-5-ylmethyl (4-((1-(2,2,2-trifluoroethyl)piperidin-4-yl)methyl)phenyl)carbamate], in data set [3], the “AC1.4 Human” value turned out to be 0.61 µM and the EC50 was 22.9 µM. The compound further showed a PappAB in data set [1] of 9.10. Moreover, the efflux ratio at 120 min, 1 μM in data set [2] is 1.04.

Turning to `O=C(Nc1ccc(CCC2CCN(C3COC3)CC2)cc1)OCc1cnco1` [Compound 132, oxazol-5-ylmethyl (4-(2-(1-(oxetan-3-yl)piperidin-4-yl)ethyl)phenyl)carbamate], in data set [3], the “AC1.4 Human” value was found to be 1.06 µM and the EC50 was determined as 41.1 µM. The compound further had a PappAB in data set [1] of 13.54. Besides, in data set [2], the efflux ratio at 120 min, 1 μM is 2.26.

For `O=C(Nc1ccc(COC2CCN(C3COC3)CC2)cc1)OCc1ccc(Cl)cc1` [Compound 232, 4-chlorobenzyl (4-(((1-(oxetan-3-yl)piperidin-4-yl)oxy)methyl)phenyl)carbamate], in data set [3], the “AC1.4 Human” value amounted to 2.17 µM and the concentration for a half-maximal effect (EC50) came to 20.8 µM. The compound further returned a PappAB in data set [1] of 9.8. The efflux ratio at 120 min, 1 μM in data set [2] was 1.5.

`CC(C)S(=O)(=O)N1CCC(Cc2ccc(NC(=O)OCc3cnco3)cc2)CC1` [Compound 464, oxazol-5-ylmethyl (4-((1-(isopropylsulfonyl)piperidin-4-yl)methyl)phenyl)carbamate]: in data set [3], the “AC1.4 Human” value turned out to be 0.14 µM and the EC50 was found to be 3.07 µM. In data set [1], this compound yielded a PappAB of 9.11. Moreover, in data set [2], the efflux ratio at 120 min, 1 μM was determined as 2.19.

Take `O=C(Nc1ccc(CC2CCN(C(=O)C3CCC3)CC2)cc1)OCc1cnco1` [Compound 469, oxazol-5-ylmethyl (4-((1-(cyclobutanecarbonyl)piperidin-4-yl)methyl)phenyl)carbamate]: in data set [3], the “AC1.4 Human” value was 0.24 µM and the half-maximal effective concentration (EC50) was determined as 26.1 µM.

Take `O=C(Nc1ccc(CC2CCN(C(=O)C3CC(F)(F)C3)CC2)cc1)OCc1cnco1` [Compound 470, oxazol-5-ylmethyl (4-((1-(3,3-difluorocyclobutane-1-carbonyl)piperidin-4-yl)methyl)phenyl)carbamate]: in data set [3], the “AC1.4 Human” value is 0.98 µM and the EC50 was found to be 37.5 µM.

Consider `O=C(Nc1ccc(CC2CCN(CC3CCO3)CC2)cc1)OCc1cnco1` (stereo not shown) [Compound 471, oxazol-5-ylmethyl (4-((1-(oxetan-2-ylmethyl)piperidin-4-yl)methyl)phenyl)carbamate], for which, in data set [3], the “AC1.4 Human” value amounted to 0.50 µM and the EC50 came to 15 µM.

Regarding `CC(=O)N1CC2(CC(Cc3ccc(NC(=O)OCc4cnco4)cc3F)C2)C1` [Compound 472, oxazol-5-ylmethyl (4-((2-acetyl-2-azaspiro[3.3]heptan-6-yl)methyl)-3-fluorophenyl)carbamate], in data set [3], the “AC1.4 Human” value came out at 0.11 µM and the EC50 came to 5.63 µM.

For the compound “tert-butyl 4-(4-(((oxazol-5-ylmethoxy)carbonyl)amino)phenethyl)piperidine-1-carboxylate [Compound 121]”, in data set [3], the “AC1.4 Human” value came out at 0.97 µM and the EC50 turned out to be 14.5 µM.

The term efflux ratio denotes the permeability from basolateral to apical divided by that in the opposite direction, in the common usage. Broadly, the EC50 is the concentration giving half of the maximal effect.

These data come from patent US20240279215A1 (Cytokinetics, Incorporated, priority 2022, published 2024).
